Read-outs that look alike come from different tables or passages of the source.
Tests used:
liver mitochondria [1] = test: Oxidative phosphorylation, α-ketoglutarate as substrate; assay type: biochemical, rats; details: 5 μmoles; for Oxidative Phosphorylation α Ketoglutarate State 3: ADP stimulated respiration; for Oxidative Phosphorylation α Ketoglutarate State 4: basal respiration
Experimental: (§1) Basal and adenosine diphosphate stimulated respiration on 10% liver homogenates was measured using succinate or αketoglutarate as substrate. See Glatt, et al., supra. The reaction vessel contained sucrose 55μ moles, KCl 22μ moles, K2 HPO4 22μ moles, test compounds at 5μ moles in 1% CMC and sodium succinate 90μ moles or αketoglutarate 60μ moles in a total volume of 1.8 ml. […] The rate of respiration was calculated at μl of O2 consumed/hr/mg wet weight of liver.

[2] = target: T1, prostaglandin synthetase from beef seminal vesicle (Bos taurus, UniProt O62664); test: Prostaglandin synthetase activity; assay type: biochemical; details: 10^-6 M; for activity at 1 µM: 1 h, read-out: Prostaglandin Synthesis; for inhibition at 1 µM: read-out: inhibition of prostaglandin synthesis
T1 construct: purchased; host or cells: beef seminal vesicle
T1 sequence (O62664 25-600): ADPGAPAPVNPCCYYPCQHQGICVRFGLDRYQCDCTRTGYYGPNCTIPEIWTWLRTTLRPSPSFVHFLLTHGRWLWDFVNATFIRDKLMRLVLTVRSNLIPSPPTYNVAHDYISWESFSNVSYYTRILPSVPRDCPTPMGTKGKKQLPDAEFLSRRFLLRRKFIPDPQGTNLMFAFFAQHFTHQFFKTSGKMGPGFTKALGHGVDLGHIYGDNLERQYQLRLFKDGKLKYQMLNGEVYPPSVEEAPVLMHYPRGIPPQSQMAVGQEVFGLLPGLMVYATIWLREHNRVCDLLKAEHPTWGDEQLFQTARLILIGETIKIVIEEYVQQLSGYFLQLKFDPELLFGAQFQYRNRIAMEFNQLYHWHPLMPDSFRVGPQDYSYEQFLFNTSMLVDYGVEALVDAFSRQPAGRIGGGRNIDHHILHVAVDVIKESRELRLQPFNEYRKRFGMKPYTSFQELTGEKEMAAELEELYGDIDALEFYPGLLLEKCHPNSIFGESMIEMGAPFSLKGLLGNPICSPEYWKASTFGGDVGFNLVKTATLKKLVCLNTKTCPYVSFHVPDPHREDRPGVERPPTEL
Experimental: After 1 hr at 37° C. the reaction was stopped with 1 N HCl and extracted with ethyl ether and evaporated. […] The plates were dried and developed in iodine vapor and with the use of prostaglandin standards the appropriate areas were scraped and counted for ^3 H content. Indometacin was used as a standard at 10^-4 M concentration. Test drugs were used at 10^-6 M.

Cathepsin [3] = test: Lysosomal free cathepsin activity, PMNs; assay type: cell-based; details: 5 μmoles; for PMNs % Free Cathespin Activity, pH5: in vitro, 60 min
Experimental: (§2) Polymorphonuclear neutrophils (PMNs) were collected from the peritoneal cavity four hr after the injection of 35 ml of 0.5% oyster glycogen in isotonic saline (Orange et al., J. Exp. Med., 127, 767 1968). The PMNs were centrifuged down at 800 g for 20 min, washed, and resuspended in minumen essential medium (MEM) with 10% fetal calf serum pH 7.4.
(§3) Acid phosphatase activity (Gianetto et al., Biochem J., 59, 433 1955) was carried out by incubating with 0.1 Mβ-glycerol phosphate in 0.1 M acetate, pH 5.0 with 5 μmoles of test drugs in 1% carboxymethylcellulose (CMC) for 20 min with liver homogenate and 60 min with resuspended PMNs. Lysosome enzymes were released by 0.02% alkyl phenoxy polyethoxy ethanol-100 to obtain the total enzymatic activity. The reaction was stopped with 10% trichloroacetic acid and the solution centrifuged. Aliquots of the supernatant were assayed for inorganic phophate content by the method of Chen et al., Anal Chem., 28, 1756 (1956). Percent free acid phosphatase was calculated. Cathepsin activity was determined in an analagous manner except the substrate used was 2% azocasein (Schleuning et al., Methods in Enzymology, XLV, 330 1976) in 0.1 M acetate buffer pH 5.0. The supernatant was assayed for acid soluble peptide fragments at 366 nm. Percent free cathepsin activity was calculated.

CF1 male mice = test: Writhing reflex (acetic acid); assay type: in vivo; details: for Writhing Reflex: 20 mg/kg intraperitoneally, mice; for inhibition of the writhing reflex: text summary of Table II
Experimental: CF1 male mice were administered test drugs at 20 mg/kg intraperitoneally 20 min (see Hendershat et al., J. Pharmacol Exp. Ther. 125, 237 1959) prior to the administration of 0.5 ml of 0.6% acetic acid (Vingar et al., European J. PHarmacol, 37, 23 1976). After 5 min the number of stretches, characterized by repeated contractures of the abdominal musculature accompanied by extension of the hind limbs, was counted for the next 10 min. The control mice had 78 stretch reflexes per 10 min.

Acid phosphatase [4] = test: Lysosomal free acid phosphatase activity, PMNs; assay type: cell-based; details: 5 μmoles; for PMNs % Free Acid Phosphatase Activity, pH5: in vitro, 60 min
Experimental: as §2, §3

cAMP levels in PMNs = test: Cyclic-3',5'-adenosine monophosphate levels (cAMP) in PMNs; assay type: cell-based; details: for activity at 5 µmol / activation at 5 µmol: 1 h; for activation at 5 µmol: read-out: increase of cyclic adenosine monophosphate levels in PMNs
Experimental: as §2
Isolated PMNs were incubated with test drugs at 5μ moles for 1 hr at 37° C. in MEM at pH 7.4. The reaction was stopped with 6% trichloroacetic acid. The cyclic-3',5'-adenosine monophosphate levels were determined by the radioimmunoassay of Gilman, Proc. Natl. Acad. Sci. (USA), 67, 305 (1970), using 3H(G)-cyclic-3',5'-adenosine monophosphate (39.8 Cu/m mol). Results were calculated in p mole/10^7 PMNs cells.

in vivo = details: mouse
Cathepsin [5] = test: Lysosomal free cathepsin activity, liver homogenate; assay type: biochemical, rats; details: 5 μmoles; for Liver % Free Cathepsin Activity, pH5: in vitro, 20 min
Experimental: (§4) Lysosomal enzymatic assays - Sprague Dawley rats (about 160 g) were sacrificed, the liver excised, and a 10% homogenate (4x) in 0.25 M sucrose and 0.001 M (ethylenedinitrilo) tetra acetic acid, ph 7.2 was prepared.
as §3

liver mitochondria [6] = test: Oxidative phosphorylation, succinate as substrate; assay type: biochemical, rats; details: 5 μmoles; for Oxidative Phosphorylation Succinate State 3: ADP stimulated respiration; for Oxidative Phosphorylation Succinate State 4: basal respiration
Experimental: as §1

[7] = system: carrageenan induced edema in mouse foot pads; test: Anti-inflammatory screen (carrageenan induced foot edema); assay type: in vivo, mice; details: for Anti-inflammatory Screen: 10 mg/kg × 2 intraperitoneally, mice; for inhibition of the carrageenan induced edema in mouse foot pads: text summary of Table II
Experimental: CF1 male mice (about 30 g) were administered test drugs at 10 mg/kg in 0.05% polysorbate .80-water intraperitoneally 3 hr and 30 min prior to 0.05 ml of 2% carrageenan in 0.9% saline injected into the plantar surface of the right hind foot. Saline injected into the left hind foot served as a base line. After 3 hr, both feet were excised at the tibiotarsal (ankle) joint according to the modified (Roszkowski et al., J. Pharm. Exp. Ther., 179, 114 1971) method of Winter, resulting in an 87 mg net increase in the weight of the control animals' feet.

Acid phosphatase [8] = test: Lysosomal free acid phosphatase activity, liver homogenate; assay type: biochemical, rats; details: 5 μmoles, in vitro; 20 min
Experimental: as §4, §3

Sprague Dawley rats = test: Red and white blood cell counts after 3 weeks dosing; assay type: in vivo; details: rat, in vivo, ip
Description: Hematocrits were also obtained.

[9] = pH 7.4, read-out: PMNs cAMP Level
[10] = pH 7.4, 5 μmoles, in vitro, read-out: PMNs cAMP Level

Molecule	Oxidative Phosphorylation α Ketoglutarate State 3 (liver mitochondria [1]) [% Control]	Oxidative Phosphorylation α Ketoglutarate State 4 (liver mitochondria [1]) [% Control]	activity at 1 µM [2] [%]	PMNs % Free Cathespin Activity, pH5 (Cathepsin [3]) [% Control]	Writhing Reflex (CF1 male mice) [% Control]	PMNs % Free Acid Phosphatase Activity, pH5 (Acid phosphatase [4]) [% Control]	activity at 5 µmol (cAMP levels in PMNs; [9]) [%]	LD50 (in vivo) [mg/kg]	Liver % Free Cathepsin Activity, pH5 (Cathepsin [5]) [% Control]	Oxidative Phosphorylation Succinate State 3 (liver mitochondria [6]) [% Control]	Oxidative Phosphorylation Succinate State 4 (liver mitochondria [6]) [% Control]	Anti-inflammatory Screen [7] [% Control]	Liver % Free Acid Phosphatase Activity, pH5 (Acid phosphatase [8]) [% Control]	both states 3 and 4 respiration with α-ketoglutarate (liver mitochondria [1])	inhibition at 1 µM [2] [%]	activity at 5 µmol (cAMP levels in PMNs; [10]) [%]	other results
C[N+](C)([BH2-]C#N)CC[N+](C)(C)[BH2-]C#N [XI, N,N,N^1,N^1 -Tetramethylethylenediamine-bis(cyanoborane)]	106 ± 21	168 ± 38	85 ± 4	16 ± 5	76	84 ± 5	94	200	50 ± 7	122 ± 13	116 ± 8	95	80 ± 6				inhibition of PMN cathepsin activity (Cathepsin [3]): at least 82%
[BH3-][N+](C)(C)C [Compound III, (CH3)3 N.BH3]	28 ± 10	71 ± 8	61 ± 3	18 ± 3	47	57 ± 4		740	17 ± 4	56 ± 12	117 ± 11	65	72 ± 6	inhibited	> 30	145	inhibition of PMN cathepsin activity (Cathepsin [3]): at least 82%; inhibition of free acid phosphatase activity in PMNs (Acid phosphatase [4]): 43%; activation at 5 µmol (cAMP levels in PMNs; in vitro incubation, 5 μmoles): 45%; inhibition of free proteolytic cathepsin activity of liver (Cathepsin [5]): at least 75%
[BH3-][NH+](C)C [IV, (CH3)2 NH.BH3]	53 ± 16	67 ± 18	100 ± 5	65 ± 5	37	82 ± 6		200	67 ± 3	82 ± 4	119 ± 9	66	82 ± 3	inhibited		80	
[Na{H3 N.BH2 (CN)}6 ]I [Compound X]				0 ± 3	12							57					Prostaglandin Synthesis ([2]; 60 min, 1 µM): 42 ± 5 % Control; alteration of the red blood or white blood cell count/cu mm (Sprague Dawley rats): no alteration; inhibition of the writhing reflex (CF1 male mice): 80%; PMNs cAMP Level (cAMP levels in PMNs; 5 μmoles, in vitro, 60 min): 361 % Control; increase of cyclic adenosine monophosphate levels in PMNs (cAMP levels in PMNs; in vitro incubation, 5 μmoles): 261%; inhibition of the carrageenan induced edema in mouse foot pads [7]: at least 40%
C[NH+](C)[BH2-]C#N [VI, (CH3)2 NH.BH2 CN]	45 ± 12	128 ± 25	63 ± 4	22 ± 1	24	89 ± 4	98	39	32 ± 5	61 ± 5	126 ± 19	49	73 ± 4		> 30		uncoupling with α-ketoglutarate as substrate (liver mitochondria [1]): uncoupling; inhibition of the writhing reflex (CF1 male mice): 70%; inhibition of the carrageenan induced edema in mouse foot pads [7]: at least 50%
C[N+](C)(C)[BH2-]I [IX, (CH3)3 N.BH 2 I]	70 ± 13	102 ± 16	67 ± 5	40 ± 4	37	71 ± 5		250	14 ± 3	63 ± 9	120 ± 12	66	71 ± 6		> 30	133	activation at 5 µmol (cAMP levels in PMNs; in vitro incubation, 5 μmoles): 33%; inhibition of free proteolytic cathepsin activity of liver (Cathepsin [5]): at least 75%
N#C[BH2-][NH2+]CC[NH2+][BH2-]C#N [XX, Ethylenediamine-bis(cyanoborane)]	25 ± 8	50 ± 18	81 ± 5	57 ± 2	95	100 ± 10	28	> 150	80 ± 7	10 ± 5	13 ± 5	87	77 ± 8	inhibited			both states 3 and 4 respiration with succinate (liver mitochondria [6]): inhibited
